Source: patent US8802664B2 (Bioproject, priority 2010, dated 2014)

Each molecule was assayed against T1, human H4 receptor (Homo sapiens, UniProt Q9H3N8) (assay: [3H]Histamine binding on membranes of CHO cells stably expressing human H4 receptor).
T1 construct: expressed in transfected cells
Protocol: CHO cells stably expressing human H4 receptor were grown until sub-confluence and centrifuged at 300 g 15 minutes at 4° C. Pellets were resuspended in buffer I Tris-HCl 50 mM, MgCl2 10 mM, NaCl 140 mM, pH=7.4 supplemented by a 1/50 dilution of a mix of protease inhibitors. The obtained suspension is stirred gently and submitted to a […] exerted through a syringe. The cell lysate is then centrifuged at 300 g 15 minutes at 4° C. in order to eliminate nucleus and cell scraps. The obtained supernatant was then centrifuged at 48000 g for 30 minutes at 4° C. The final pellet is resuspended in buffer I with a potter homogenizer. Aliquots were frozen in liquid nitrogen and stored until use at −80° C. Protein content is measured by the Bradford method.
Defreezed membranes were diluted at a final concentration of 20 μg/180 μL/well in a binding buffer containing 50 mM Tris/HCl, 0.5 mM EDTA, pH=7.4 and distributed in 96 well polystyrene microplate. [^3H] […] Non specific binding was estimated in the presence of 10 μM BP1.2404 (JNJ 7777120). The reaction was terminated by filtration through GF/B filters pre-soaked 2 hours at 4° C. in […]. Filters were rinsed 3 times with 250 μl of ice cold incubation binding buffer.
The filter-bound radioactivity was measured in a liquid scintillation counter Microbeta TRILUX® with 50 μl of scintillation fluid.
The hH4 binding investigated by use of [^3H]

Row | SMILES | Ki or IC50 activity class
1 | Cc1cc(C(OC2CCN(C)CC2)c2nc3ccccc3s2)ccc1F (stereo not drawn) [Example 34, 2-[(4-fluoro-3-methylphenyl)(1-methylpiperidin-4-yloxy)methyl]benzothiazole] | < 300 nM
2 | CN1CCC(OC(c2cccc(C#CCCCCN)c2)c2nc3cc(F)ccc3[nH]2)CC1 (stereo not drawn) [Example 439, 6-{3-[(5-fluoro-1H-benzimidazol-2-yl)(1-methylpiperidin-4-yloxy)methyl]phenyl}hex-5-ynylamine] | < 30 nM
3 | CN1CCC(OC(c2ccccc2)c2nc3cc(F)ccc3s2)CC1 (stereo not drawn) [Example 33, 5-fluoro-2-[(1-methylpiperidin-4-yloxy)phenylmethyl]benzothiazole] | < 300 nM
4 | CN1CCC(OC(c2nc3ccccc3[nH]2)c2cc(OC(F)(F)F)ccc2F)CC1 (single isomer, unassigned) [Example 435, 2-[(2-fluoro-5-trifluoromethoxyphenyl)(1-methylpiperidin-4-yloxy)methyl]-1H-benzimidazole] | < 30 nM
5 | C=CCOc1cccc(C(OC2CCN(C)CC2)c2nc3ccccc3s2)c1 (stereo not drawn) [Example 22, 2-[(3-allyloxyphenyl)(1-methylpiperidin-4-yloxy)methyl]benzothiazole] | < 30 nM
6 | CN1CCC(OC(c2cccc(OC3CCNC3)c2)c2nc3ccccc3s2)CC1 (stereo not drawn) [Example 383, 2-{(1-methylpiperidin-4-yloxy)[3-(pyrrolidin-3-yloxy)phenyl]methyl}benzothiazole] | < 300 nM
7 | CN1CCC(NC(c2cccc(OCc3ccccc3)c2)c2nc3ccccc3s2)CC1 (stereo not drawn) [Example 101, [benzothiazol-2-yl(3-benzyloxyphenyl)methyl](1-methylpiperidin-4-yl)amine] | < 30 nM
8 | CN1CCC(OC(c2cccc(N3CC(N(C)C)C3)c2)c2nc3ccccc3s2)CC1 (stereo not drawn) [Example 450] | < 1000 nM
9 | COc1cccc(C(NC2CCN(C)CC2)c2nc3ccccc3s2)c1 (stereo not drawn) [Example 25, [benzothiazol-2-yl(3-methoxyphenyl)methyl](1-methylpiperidin-4-yl)amine] | < 30 nM
10 | CN1CCC(OC(c2cccc(C(=O)N(C)c3ccccc3)c2)c2nc3ccccc3s2)CC1 (stereo not drawn) [Example 223, 3-[benzothiazol-2-yl(1-methylpiperidin-4-yloxy)methyl]-N-methyl-N-phenylbenzamide] | < 300 nM
11 | CNCCOc1cccc(C(OC2CCN(C)CC2)c2nc3ccccc3s2)c1 (stereo not drawn) [Example 279, (2-{3-[benzothiazol-2-yl(1-methylpiperidin-4-yloxy)methyl]phenoxy}ethyl)methyl-amine] | < 1000 nM
12 | CN1CCC(OC(c2cccc(OCCCN3CCN(C(=O)OC(C)(C)C)CC3)c2)c2nc3ccccc3[nH]2)CC1 (stereo not drawn) [Example 360, 4-(3-{3-[(1H-benzimidazol-2-yl)(1-methylpiperidin-4-yloxy)methyl]phenoxy}propyl)piperazine-1-carboxylic acid tert-butyl ester] | < 1000 nM
13 | CN1CCC(OC(c2cccc(C(F)(F)F)c2)c2nc3ccccc3s2)CC1 (stereo not drawn) [Example 31, 2-[(1-methylpiperidin-4-yloxy)(3-trifluoromethylphenyl)methyl]benzothiazole] | < 30 nM
14 | CN1CCC(OC(c2cccc(N3CCC(=O)C3)c2)c2nc3ccccc3s2)CC1 (stereo not drawn) [Example 443, 1-{3-[benzothiazol-2-yl(1-methylpiperidin-4-yloxy)methyl]phenyl}pyrrolidin-3-one] | < 30 nM
15 | CCc1cccc(C(OC2CCN(C)CC2)c2nc3ccccc3s2)c1 (stereo not drawn) [Example 152, 2-[(3-ethylphenyl)(1-methylpiperidin-4-yloxy)methyl]benzothiazole] | < 30 nM
16 | CN1CCC(OC(c2cccc(OCc3cccc(F)c3)c2)c2nc3ccccc3s2)CC1 (stereo not drawn) [Example 171, 2-[[3-(3-fluorobenzyloxy)phenyl](1-methylpiperidin-4-yloxy)methyl]benzothiazole] | < 30 nM
17 | CNC1CCN(c2cccc(C(OC3CCN(C)CC3)c3nc4ccccc4s3)c2)C1 (stereo not drawn) [Example 483] | < 300 nM
18 | CN1CCC(OC(c2cccc(C#CCN)c2)c2nc3ccccc3s2)CC1 (stereo not drawn) [Example 296, 3-{3-[benzothiazol-2-yl(1-methylpiperidin-4-yloxy)methyl]phenyl}prop-2-ynylamine] | < 300 nM
19 | CN1CCC(OC(c2cccc(OCCCCCNCC(=O)OC(C)(C)C)c2)c2nc3ccccc3s2)CC1 (stereo not drawn) [Example 375, (5-{3-[benzothiazol-2-yl(1-methylpiperidin-4-yloxy)methyl]phenoxy}pentylamino)acetic acid tert-butyl ester] | < 1000 nM
20 | COC(=O)c1cccc(C(OC2CCN(C)CC2)c2nc3ccccc3s2)c1 (stereo not drawn) [Example 199, 3-[benzothiazol-2-yl(1-methylpiperidin-4-yloxy)methyl]benzoic acid methyl ester] | < 300 nM
21 | CN1CCC(NC(c2cccc(OCc3ccccc3F)c2)c2nc3ccccc3[nH]2)CC1 (stereo not drawn) [Example 113, {(1H-benzimidazol-2-yl)[3-(2-fluorobenzyloxy)phenyl]methyl}(1-methylpiperidin-4-yl)amine] | < 30 nM
22 | CN1CCC(OC(c2cccc(CCCCCNC(=N)N)c2)c2nc3ccccc3s2)CC1 (stereo not drawn) [Example 365, N-(5-{3-[benzothiazol-2-yl(1-methylpiperidin-4-yloxy)methyl]phenyl}pentyl)guanidine] | < 300 nM
23 | Cc1cccc(C(OC2CCN(C)CC2)c2nc3ccccc3s2)c1 (stereo not drawn) [Example 8, 2-[(1-methylpiperidin-4-yloxy)(m-tolyl)methyl]benzothiazole] | < 30 nM
24 | CN1CCC(OC(c2nc3ccccc3s2)c2cc(OC(F)(F)F)ccc2F)CC1 (stereo not drawn) [Example 526] | < 30 nM
25 | Cc1ccc(C(OC2CCN(C)CC2)c2nc3ccccc3s2)s1 (stereo not drawn) [Example 19, 2-[(1-methylpiperidin-4-yloxy)(5-methylthiophen-2-yl)methyl]benzothiazole] | < 300 nM

Results, then the molecule that gave them:

Row | Ki or IC50 activity class | SMILES
26 | < 30 nM | CN1CCC(OC(c2cccc(SCCCCO)c2)c2nc3ccccc3s2)CC1 (stereo not drawn) [Example 256, 4-{3-[benzothiazol-2-yl(1-methylpiperidin-4-yloxy)methyl]phenylsulfanyl}butan-1-ol]
27 | < 30 nM | CN1CCC(OC(c2nc3ccccc3[nH]2)c2cc(C#CCCCCN)ccc2F)CC1 (stereo not drawn) [Example 557, 6-{3-[(1H-benzimidazol-2-yl)(1-methylpiperidin-4-yloxy)methyl]-4-fluorophenyl}hex-5-ynylamine]
28 | < 1000 nM | CN1CCC(OC(c2cccc(SCC3=NCCN3)c2)c2nc3cc(F)ccc3[nH]2)CC1 (stereo not drawn) [Example 463]
29 | < 300 nM | CN1CCC(OC(c2cccc(Br)c2)c2nc3ccccc3[nH]2)CC1 (stereo not drawn) [Example 78, 2-[(3-bromophenyl)(1-methylpiperidin-4-yloxy)methyl]-1H-benzimidazole]
30 | < 300 nM | CC(=O)NC(=N)NCCSc1cccc(C(OC2CCN(C)CC2)c2nc3ccccc3[nH]2)c1 (stereo not drawn) [Example 401, N-acetyl-N′-(2-{3-[(1H-benzimidazol-2-yl)(1-methylpiperidin-4-yloxy)methyl]phenylsulfanyl}ethyl)guanidine]
31 | < 300 nM | CN1CCC(OC(c2cccc(C#CCCCCNC(=N)N)c2)c2nc3ccccc3[nH]2)CC1 (stereo not drawn) [Example 346, N-(6-{3-[(1H-benzimidazol-2-yl)(1-methylpiperidin-4-yloxy)methyl]phenyl}hex-5-ynyl)guanidine]
32 | < 300 nM | CN1CCC(OC(c2cccc(-c3ccc(Cl)c(Cl)c3)c2)c2nc3ccccc3[nH]2)CC1 (stereo not drawn) [Example 122, 2-[(3′,4′-dichlorobiphenyl-3-yl)(1-methylpiperidin-4-yloxy)methyl]-1H-benzimidazole]
33 | < 300 nM | CN1CCC(OC(c2cccc(-c3ccc(F)cc3)c2)c2nc3ccccc3[nH]2)CC1 (stereo not drawn) [Example 115, 2-[(4′-fluorobiphenyl-3-yl)(1-methylpiperidin-4-yloxy)methyl]-1H-benzimidazole]
34 | < 300 nM | CN1CCC(OC(c2cccc(SCCCCO)c2)c2nc3ccccc3[nH]2)CC1 (stereo not drawn) [Example 248, 4-{3-[(1H-benzimidazol-2-yl)(1-methylpiperidin-4-yloxy)methyl]phenylsulfanyl}butan-1-ol]
35 | < 300 nM | Cc1ccc(F)c(C(OC2CCN(C)CC2)c2nc3ccccc3[nH]2)c1 (stereo not drawn) [Example 490]
36 | < 30 nM | CCSc1cccc(C(OC2CCN(C)CC2)c2nc3ccccc3s2)c1 (stereo not drawn) [Example 159, 2-[(3-ethylsulfanylphenyl)(1-methylpiperidin-4-yloxy)methyl]benzothiazole]
37 | < 300 nM | CN1CCC(OC(c2cccc(SCCCCNC(=N)N)c2)c2nc3ccccc3[nH]2)CC1 (stereo not drawn) [Example 444, N-(4-{3-[(1H-benzimidazol-2-yl)(1-methylpiperidin-4-yloxy)methyl]phenylsulfanyl}butyl)guanidine]
38 | < 1000 nM | CN1CCC(OC(c2cccc(CCC3CCNCC3)c2)c2nc3ccccc3[nH]2)CC1 (stereo not drawn) [Example 396, 2-{(1-methylpiperidin-4-yloxy)[3-(2-piperidin-4-yl-ethyl)phenyl]methyl}-1H-benzimidazole]
39 | < 300 nM | CN1CCC(OC(c2cccc(C#N)c2)c2nc3ccccc3[nH]2)CC1 (stereo not drawn) [Example 172, 3-[(1H-benzimidazol-2-yl)(1-methylpiperidin-4-yloxy)methyl]benzonitrile]
